Laboratory results published in patent US12624029B2, “JAK inhibitor compounds, method for synthesizing same and use thereof” (GALDERMA HOLDING SA, priority 2020, dated 2026).

Assays:
[1] = test system: Salmonella typhimurium TA98 and TA100; assay: Mini Ames assay (TA98 and TA100); type: cell-based; conditions: for increase in the mean number of revertants: TA98 and TA100, with or without metabolic activation (S9)
Excerpt: The Ames test in micro-method (in 6-well plates=mini Ames) follows the general principles of the standard Ames's technique. The Ames test used strains of bacteria Salmonella typhimurium that carry mutations in the genes involved in histidine synthesis. These strains are auxotrophic mutants, they require histidine for growth but cannot produce it. The assay was used to observe the ability of the test item to induce reverse mutations allowing the bacteria to grow in a histidine-free medium. The number of bacteria that revert and acquire the wild-type ability to grow in the absence of histidine can be estimated by counting the colonies that develop upon incubation. The use of different strains allows the identification of different mechanisms of gene mutation (TA98 for detection of frameshift mutations and TA100 for detection of base pair substitutions).
In a number of cases, the test item itself is not directly mutagenic but its metabolic derivatives are.
A toxicity assessment was performed on complete nutriment agar plate (with histidine) to define the highest concentration to be used in the genotoxicity assay. Solutions were prepared in 100% DMSO. The first concentration analyzed in the well (6-well plate) was 500 μg per plate followed by 7 serial dilutions (2 times factor of dilution). […] The viability of the positive and negative controls was analyzed for each strain, in the presence or absence of metabolic activation system, and were compared with historical data to validate the study. […]
Test items, positive and negative controls were incubated with the 2 bacterial strains. After 48 h incubation at 37° C. with and without metabolic activation (S9), the prototrophic mutant colonies that had grown on the plates were counted. The results were expressed as the mean number of revertants for each condition tested (3 replicates each) and for each concentration of the test item and controls. Induction ration, corresponding to the ratio of revertants in presence of test item versus spontaneous revertant, was determined for each concentration.

[2] = test system: different pharmacological targets; assay: CEREP Safety Screen-44 in vitro pharmacology binding and enzyme/uptake assays; conditions: tested at 10 μM; FIGS. 2-5
Protocol: An in vitro pharmacology assay was conducted to assess the capability of the compounds to interact with different pharmacological targets when tested at 10 μM in different binding and enzyme/uptake assays. The included targets are indicative of potential effects in major organs and drug-drug interactions.
Compound binding was calculated as a % inhibition of the binding of a radioactively labelled ligand specific for each target. Compounds were tested at 1.0E-05 M. Compound enzyme inhibition effect was calculated as a % inhibition of control enzyme activity. Results showing an inhibition or stimulation higher than 50% are considered to represent significant effects of the test compounds.

Row | SMILES | increase in the mean number of revertants [1] | pharmacological effects in safety screen compared with Ruxolitinib [2] | mutagenicity ([1]; TA98 & TA100, with and without metabolic system)
1 | CN(CC1CCC1)S(=O)(=O)C[C@H]1C[C@@H](Nc2c(C#N)cnc3[nH]ccc23)C1 [Compound D] | did not induce a biologically significant increase | significantly improved pharmacological effects over Ruxolitinib | –
2 | C=CCCN(C)S(=O)(=O)C[C@H]1C[C@@H](Nc2c(C#N)cnc3[nH]ccc23)C1 [Compound C, N-(But-3-en-1-yl)-1-((cis)-3-((5-cyano-1H-pyrrolo[2,3-b]pyridin-4-yl)amino)cyclobutyl)-N-methylmethanesulfonamide] | did not induce a biologically significant increase | significantly improved pharmacological effects over Ruxolitinib | not considered to be mutagenic
